Reference: US12595253B2, “Benzamides of pyrazolylamino-pyrimidinyl derivatives, and compositions and methods thereof” (LYNK PHARMACEUTICALS CO. LTD., priority 2019, dated 2026)

Assays:
[1] = Liver microsomes study, Phase I stability (RLM); assay type: in vitro ADME, rat; details: pH 7.4; rat liver microsomes 0.5 mg/mL, 1 μM test article; read-out: RLM Clint
Summary of the method: (§1)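 Rat or human liver microsomes were incubated with test article, and reactions started with an NADPH regenerating system. Samples at 0, 10, 30 and 90 minutes were quenched with cold acetonitrile and analyzed by LC/MS/MS. T½ and CLint came from the ln(% remaining) versus time slope, scaled by protein concentration.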

[2] = Rat pharmacokinetic study (intravenous and oral); assay type: in vivo; details: male, plasma, Sprague-Dawley rats, intravenous, 1 mg/kg, solution
Protocol: Pharmacokinetic profile of test articles in rodent were evaluated in fasted male ICR mouse and Sprague-Dawley rats. […] Typically, mice were dosed with 2 mg/kg and 10 mg/kg by intravenous injection and oral gavage, respectively. Rats were dosed with 1 mg/kg and 5 mg/kg by intravenous injection and oral gavage, respectively. Beagle dogs were dosed with 1 mg/kg and 5 mg/kg by intravenous injection and oral gavage, respectively. After dosing, blood samples were collected at each time point. For IV injection group, time points were set at 5, 15, 30 min, and then 1, 2, 4, 8 and 24 hours after dosing. For oral gavage group, timepoints were set at 15, 30 m, and then 1, 2, 4, 8, and 24 hours. Blood was collected into appropriately labeled tubes containing K2EDTA as the anticoagulant. Plasma was obtained within 1 hours of blood collection by centrifugation at 8000×g and 4° C. for 6 minutes, and then stored at −20° C. until analyzed by LCMS/MS for quantification.

[3] = Liver microsomes study, Phase I stability (HLM); assay type: in vitro ADME, human; details: pH 7.4; human liver microsomes 0.5 mg/mL, 1 μM test article; read-out: HLM Clint
Summary of the method: as §1

[4] = target: T1, JAK1 (Homo sapiens, UniProt P23458); experiment: JAK1 microfluidic kinase assay (Caliper EZ Reader II, FAM labeled peptide substrate); assay type: biochemical
T1 construct: purchased Carna Biosciences
T1 sequence (P23458 whole entry): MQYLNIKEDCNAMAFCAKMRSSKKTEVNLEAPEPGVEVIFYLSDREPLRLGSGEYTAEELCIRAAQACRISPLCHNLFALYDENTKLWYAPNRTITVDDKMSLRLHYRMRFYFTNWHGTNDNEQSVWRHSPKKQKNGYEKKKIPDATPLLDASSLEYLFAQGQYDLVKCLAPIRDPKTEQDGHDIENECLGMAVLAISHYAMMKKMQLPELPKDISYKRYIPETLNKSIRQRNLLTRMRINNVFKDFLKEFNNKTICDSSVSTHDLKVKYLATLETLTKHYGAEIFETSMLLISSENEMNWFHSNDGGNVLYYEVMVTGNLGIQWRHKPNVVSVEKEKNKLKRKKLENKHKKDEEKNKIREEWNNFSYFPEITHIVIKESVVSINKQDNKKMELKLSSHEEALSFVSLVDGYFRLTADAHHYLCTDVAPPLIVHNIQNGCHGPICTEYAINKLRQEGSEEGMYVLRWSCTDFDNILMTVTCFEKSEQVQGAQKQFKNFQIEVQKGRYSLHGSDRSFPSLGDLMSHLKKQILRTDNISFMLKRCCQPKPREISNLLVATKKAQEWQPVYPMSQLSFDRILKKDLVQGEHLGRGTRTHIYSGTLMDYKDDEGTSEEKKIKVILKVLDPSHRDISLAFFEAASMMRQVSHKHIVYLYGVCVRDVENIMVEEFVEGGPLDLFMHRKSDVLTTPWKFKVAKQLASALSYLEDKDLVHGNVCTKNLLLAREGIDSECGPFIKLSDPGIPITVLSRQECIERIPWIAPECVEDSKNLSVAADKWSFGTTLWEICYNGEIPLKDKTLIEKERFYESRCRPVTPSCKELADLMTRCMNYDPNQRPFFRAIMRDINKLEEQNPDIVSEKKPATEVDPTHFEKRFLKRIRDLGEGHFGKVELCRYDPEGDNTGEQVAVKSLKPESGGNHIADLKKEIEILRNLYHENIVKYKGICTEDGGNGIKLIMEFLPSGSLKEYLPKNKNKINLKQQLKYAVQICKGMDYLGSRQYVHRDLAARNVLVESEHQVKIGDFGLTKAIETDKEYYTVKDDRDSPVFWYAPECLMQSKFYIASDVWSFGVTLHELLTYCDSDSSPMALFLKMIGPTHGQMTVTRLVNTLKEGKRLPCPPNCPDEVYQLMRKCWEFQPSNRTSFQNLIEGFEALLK
Summary of the method: (§2)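 Compounds, serially diluted 3-fold from 5 μM, were preincubated 10 min with enzyme at ambient temperature before reaction in HEPES/Brij35/MgCl2/DTT buffer (1% DMSO final), tuned to 10% peptide conversion. After EDTA stop, FAM-peptide phosphorylation was measured by Caliper EZ Reader II; IC50 fitted from percent-inhibition curves.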

[5] = target: T2, JAK2V617F (Homo sapiens, UniProt O60674, V617F); experiment: JAK2V617F microfluidic kinase assay (Caliper EZ Reader II, FAM labeled peptide substrate); assay type: biochemical; details: JAK2V617F 2.5 nM, 1 mM ATP
T2 construct: purchased Carna Biosciences
T2 sequence (O60674 whole entry V617F): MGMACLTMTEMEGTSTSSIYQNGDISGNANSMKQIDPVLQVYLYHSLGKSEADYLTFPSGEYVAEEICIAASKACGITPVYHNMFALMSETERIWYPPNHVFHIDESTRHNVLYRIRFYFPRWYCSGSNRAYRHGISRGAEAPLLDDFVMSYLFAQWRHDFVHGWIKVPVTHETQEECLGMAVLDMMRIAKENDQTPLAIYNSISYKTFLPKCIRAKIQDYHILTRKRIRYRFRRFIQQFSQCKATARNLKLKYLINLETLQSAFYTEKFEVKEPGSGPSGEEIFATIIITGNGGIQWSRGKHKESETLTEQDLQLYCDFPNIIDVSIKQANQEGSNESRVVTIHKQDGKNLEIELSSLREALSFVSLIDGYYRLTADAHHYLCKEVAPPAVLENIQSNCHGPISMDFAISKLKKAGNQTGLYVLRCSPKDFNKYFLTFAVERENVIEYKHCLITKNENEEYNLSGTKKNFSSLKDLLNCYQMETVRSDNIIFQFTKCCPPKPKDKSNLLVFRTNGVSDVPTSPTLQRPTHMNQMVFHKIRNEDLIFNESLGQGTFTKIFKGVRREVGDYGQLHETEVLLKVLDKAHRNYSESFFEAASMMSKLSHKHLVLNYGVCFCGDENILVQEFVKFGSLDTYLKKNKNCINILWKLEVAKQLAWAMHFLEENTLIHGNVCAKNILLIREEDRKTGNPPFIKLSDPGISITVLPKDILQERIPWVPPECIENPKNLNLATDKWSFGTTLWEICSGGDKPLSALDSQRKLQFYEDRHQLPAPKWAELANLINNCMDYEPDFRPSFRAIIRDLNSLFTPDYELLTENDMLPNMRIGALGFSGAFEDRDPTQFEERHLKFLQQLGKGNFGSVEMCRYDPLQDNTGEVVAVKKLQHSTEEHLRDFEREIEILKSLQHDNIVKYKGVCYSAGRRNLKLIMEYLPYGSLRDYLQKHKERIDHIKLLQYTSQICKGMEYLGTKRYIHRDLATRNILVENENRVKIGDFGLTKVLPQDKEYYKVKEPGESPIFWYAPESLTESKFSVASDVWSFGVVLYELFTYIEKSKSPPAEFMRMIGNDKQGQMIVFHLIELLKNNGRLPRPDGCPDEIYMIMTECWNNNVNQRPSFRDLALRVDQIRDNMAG
Summary of the method: as §2

[6] = target: T3, JAK2 (Homo sapiens, UniProt O60674); experiment: JAK2 microfluidic kinase assay (Caliper EZ Reader II, FAM labeled peptide substrate); assay type: biochemical
T3 construct: purchased Carna Biosciences
T3 sequence (O60674 whole entry): as the sequence (O60674 whole entry V617F) above, with F617V counted along it
Summary of the method: as §2

[7] = target: T4, CYP1A2 (Homo sapiens, UniProt P05177); experiment: CYPs inhibition in pooled human liver microsomes, probe substrate Phenacetin; assay type: in vitro ADME
T4 construct: 0.2 mg/mL human liver microsomes was pre-incubated in 180 μL reaction mixture; from tissue; host or cells: pooled human liver microsomes
T4 sequence (P05177 1-516): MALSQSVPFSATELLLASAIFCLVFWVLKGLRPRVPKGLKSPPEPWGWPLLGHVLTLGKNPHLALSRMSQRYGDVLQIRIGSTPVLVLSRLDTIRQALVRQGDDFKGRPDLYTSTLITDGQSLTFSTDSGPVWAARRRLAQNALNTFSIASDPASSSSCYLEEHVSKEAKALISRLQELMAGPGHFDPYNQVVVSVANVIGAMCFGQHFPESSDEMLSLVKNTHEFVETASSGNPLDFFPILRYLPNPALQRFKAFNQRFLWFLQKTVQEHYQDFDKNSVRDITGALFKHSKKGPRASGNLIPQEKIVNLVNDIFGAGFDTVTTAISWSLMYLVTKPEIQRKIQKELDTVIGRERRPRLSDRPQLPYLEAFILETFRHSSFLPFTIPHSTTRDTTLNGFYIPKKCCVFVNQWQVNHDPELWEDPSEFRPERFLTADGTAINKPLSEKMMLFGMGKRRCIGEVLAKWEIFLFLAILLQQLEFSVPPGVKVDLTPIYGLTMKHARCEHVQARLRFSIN
Protocol: (§3) The inhibitory potential of test articles in pooled human liver microsomes was evaluated by the method using a cocktail of CYP substrates. […] For the negative control well, the test articles was replaced with 20 μL reaction buffer. After 10 min of pre-incubation at 37° C., 20 μL 10 mM NADPH cofactor was added to the pre-reaction mixtures. After another 10 min incubation, the reaction was stopped by adding 400 μL of ice cold acetonitrile solution containing tolbutamide and labetalol served as internal standards. The incubation mixtures were centrifuged at 4000×g for 20 min, and then the supernatants were analyzed by LC-MS/MS after dilution. SigmaPlot was applied to plot % control activity versus the test compound concentrations, and for non-linear regression analysis of the data. IC50 values of test articles were determined using 3-parameter logistic equation.

[8] = target: T5, CYP2C19 (Homo sapiens, UniProt P33261); experiment: CYPs inhibition in pooled human liver microsomes, probe substrate S-mephenytoin; assay type: in vitro ADME
T5 construct: 0.2 mg/mL human liver microsomes was pre-incubated in 180 μL reaction mixture; from tissue; host or cells: pooled human liver microsomes
T5 sequence (P33261 whole entry): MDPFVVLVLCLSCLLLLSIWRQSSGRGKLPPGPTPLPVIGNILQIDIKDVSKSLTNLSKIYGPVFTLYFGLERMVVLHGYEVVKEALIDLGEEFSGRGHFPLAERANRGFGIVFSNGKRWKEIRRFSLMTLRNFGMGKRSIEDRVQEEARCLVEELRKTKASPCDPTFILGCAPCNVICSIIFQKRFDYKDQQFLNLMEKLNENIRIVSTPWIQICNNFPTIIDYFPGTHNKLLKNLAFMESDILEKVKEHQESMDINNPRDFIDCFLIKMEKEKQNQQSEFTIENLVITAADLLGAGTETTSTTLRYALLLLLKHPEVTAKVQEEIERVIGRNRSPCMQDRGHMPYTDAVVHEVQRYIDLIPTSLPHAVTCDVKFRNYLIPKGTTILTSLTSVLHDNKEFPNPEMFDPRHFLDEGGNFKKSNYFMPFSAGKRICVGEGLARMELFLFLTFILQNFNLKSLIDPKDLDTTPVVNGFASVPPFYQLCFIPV
Protocol: as §3

[9] = target: T6, CYP2D6 (Homo sapiens, UniProt P10635); experiment: CYPs inhibition in pooled human liver microsomes, probe substrate Dextromethorphan; assay type: in vitro ADME
T6 construct: 0.2 mg/mL human liver microsomes was pre-incubated in 180 μL reaction mixture; from tissue; host or cells: pooled human liver microsomes
T6 sequence (P10635 whole entry): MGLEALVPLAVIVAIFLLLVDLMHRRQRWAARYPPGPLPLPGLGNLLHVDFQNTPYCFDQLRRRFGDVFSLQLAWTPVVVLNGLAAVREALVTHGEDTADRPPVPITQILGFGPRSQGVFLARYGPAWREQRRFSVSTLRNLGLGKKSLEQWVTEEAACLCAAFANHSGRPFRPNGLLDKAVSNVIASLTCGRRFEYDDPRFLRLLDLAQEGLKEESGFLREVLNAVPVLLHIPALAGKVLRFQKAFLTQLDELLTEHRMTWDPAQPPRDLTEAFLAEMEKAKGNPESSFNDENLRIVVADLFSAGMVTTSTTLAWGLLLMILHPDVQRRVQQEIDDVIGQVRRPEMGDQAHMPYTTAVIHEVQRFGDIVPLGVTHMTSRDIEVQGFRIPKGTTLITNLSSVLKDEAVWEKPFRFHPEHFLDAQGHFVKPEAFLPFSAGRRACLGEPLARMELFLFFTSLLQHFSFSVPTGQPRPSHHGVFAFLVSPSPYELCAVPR
Protocol: as §3

[10] = target: T7, CYP2C9 (Homo sapiens, UniProt P11712); experiment: CYPs inhibition in pooled human liver microsomes, probe substrate Diclofenac; assay type: in vitro ADME
T7 construct: 0.2 mg/mL human liver microsomes was pre-incubated in 180 μL reaction mixture; from tissue; host or cells: pooled human liver microsomes
T7 sequence (P11712 whole entry): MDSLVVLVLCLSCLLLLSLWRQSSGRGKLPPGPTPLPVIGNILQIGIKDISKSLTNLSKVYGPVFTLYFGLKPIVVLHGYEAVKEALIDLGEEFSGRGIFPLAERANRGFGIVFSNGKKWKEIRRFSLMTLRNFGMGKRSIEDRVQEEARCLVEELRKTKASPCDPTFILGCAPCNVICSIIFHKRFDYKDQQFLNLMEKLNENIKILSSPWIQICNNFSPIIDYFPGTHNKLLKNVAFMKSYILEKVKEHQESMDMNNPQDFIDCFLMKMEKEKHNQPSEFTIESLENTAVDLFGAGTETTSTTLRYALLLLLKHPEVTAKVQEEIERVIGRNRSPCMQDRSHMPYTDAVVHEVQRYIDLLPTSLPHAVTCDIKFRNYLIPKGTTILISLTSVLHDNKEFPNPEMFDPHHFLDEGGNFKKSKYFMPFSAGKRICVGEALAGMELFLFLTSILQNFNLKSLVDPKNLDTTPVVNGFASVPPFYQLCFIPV
Protocol: as §3

[11] = target: T8, TYK2 (Homo sapiens, UniProt P29597); experiment: TYK2 microfluidic kinase assay (Caliper EZ Reader II, FAM labeled peptide substrate); assay type: biochemical; details: IC50 TYK2 ([…]) (1 mM ATP), TYK2 […], 1 mM ATP
T8 construct: purchased Carna Biosciences
T8 sequence (P29597 whole entry): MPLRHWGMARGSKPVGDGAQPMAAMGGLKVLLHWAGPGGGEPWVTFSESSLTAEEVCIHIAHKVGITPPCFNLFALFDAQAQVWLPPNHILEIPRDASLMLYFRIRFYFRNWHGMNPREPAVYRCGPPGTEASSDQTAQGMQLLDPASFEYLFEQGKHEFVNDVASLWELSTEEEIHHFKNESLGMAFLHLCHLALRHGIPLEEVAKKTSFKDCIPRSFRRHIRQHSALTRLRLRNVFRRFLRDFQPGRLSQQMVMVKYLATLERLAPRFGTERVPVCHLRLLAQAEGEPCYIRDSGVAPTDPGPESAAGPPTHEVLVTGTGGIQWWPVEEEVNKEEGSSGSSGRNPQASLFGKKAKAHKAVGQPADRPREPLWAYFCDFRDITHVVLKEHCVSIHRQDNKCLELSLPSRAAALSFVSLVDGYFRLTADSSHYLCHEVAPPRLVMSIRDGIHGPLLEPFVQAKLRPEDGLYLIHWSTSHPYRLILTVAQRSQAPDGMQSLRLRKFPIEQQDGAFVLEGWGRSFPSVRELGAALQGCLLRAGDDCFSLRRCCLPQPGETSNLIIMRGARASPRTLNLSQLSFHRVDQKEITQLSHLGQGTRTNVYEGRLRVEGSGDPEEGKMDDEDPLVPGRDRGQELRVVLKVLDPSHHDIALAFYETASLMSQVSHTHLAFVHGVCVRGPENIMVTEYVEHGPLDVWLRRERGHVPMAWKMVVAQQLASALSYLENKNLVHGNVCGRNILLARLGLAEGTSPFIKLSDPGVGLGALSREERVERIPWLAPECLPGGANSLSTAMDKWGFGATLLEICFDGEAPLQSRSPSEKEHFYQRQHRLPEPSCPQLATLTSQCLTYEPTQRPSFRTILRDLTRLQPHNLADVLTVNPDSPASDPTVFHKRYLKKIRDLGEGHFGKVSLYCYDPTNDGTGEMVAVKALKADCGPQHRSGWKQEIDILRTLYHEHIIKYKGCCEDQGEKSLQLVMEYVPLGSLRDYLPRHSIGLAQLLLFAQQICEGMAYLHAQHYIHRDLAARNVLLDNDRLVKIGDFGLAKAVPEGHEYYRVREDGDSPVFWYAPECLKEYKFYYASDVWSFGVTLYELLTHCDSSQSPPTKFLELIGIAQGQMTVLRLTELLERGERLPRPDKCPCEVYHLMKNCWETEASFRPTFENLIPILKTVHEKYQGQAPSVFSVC
Summary of the method: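 3-fold series, top 5 μM, 1% DMSO; 10 min preincubation with enzyme, RT. Buffer 50 mM HEPES/10 mM MgCl2/2 mM DTT/0.01% Brij35. Run times JAK1 120 min, JAK2 20, JAK2V617F 30, TYK2 10. Stopped with 50 mM EDTA; IC50 from % inhibition vs no-enzyme and DMSO controls.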

[12] = target: T9, CYP3A4 (Homo sapiens, UniProt P08684); experiment: CYPs inhibition in pooled human liver microsomes, probe substrate Midazolam; assay type: in vitro ADME
T9 construct: 0.2 mg/mL human liver microsomes was pre-incubated in 180 μL reaction mixture; from tissue; host or cells: pooled human liver microsomes
Protocol: as §3

[13] = IC50 JAK1 (5 nM) (1 m MATP), JAK1 5 nM, 1 mM ATP
[14] = IC50 JAK2 ([…]) (1 mM ATP), 1 mM ATP
[15] = IC50 JAK2 ([…]) (Km ATP), Km ATP

SMILES	microsomal CLint at 1 μM [1] [µL/min/mg]	AUC [2] [ng·h/mL]	Vd [2] [L/kg]	clearance [2] [mL/min/kg]	half-life [2] [min]	microsomal CLint at 1 μM [3] [µL/min/mg]	IC50 [4, 13] [nM]	IC50 [5] [nM]	IC50 [6, 14] [nM]	IC50 [6, 15] [nM]	IC50 [7] [nM]	IC50 [8] [nM]	IC50 [9] [nM]	IC50 [10] [nM]	IC50 [11] [nM]	IC50 [12] [nM]	IC50 ([4]; IC50 JAK1 (10 nM) (Km ATP), JAK1 10 nM, Km ATP) [nM]
Cc1cnc(Nc2cnn(C3CCN(C(=O)C4CC4)CC3)c2)nc1-c1ccc(C(=O)NCC#N)cc1 [Example 24, N-(Cyanomethyl)-4-(2-((1-(1-(cyclopropanecarbonyl)piperidin-4-yl)-1H-pyrazol-4-yl)amino)-5-methylpyrimidin-4-yl)benzamide]	53.6	1970	0.43	8.4	37.8	52.8	13.8	2.53	< 0.25	< 0.25							
Cc1cnc(Nc2cnn(C3CCC(O)CC3)c2)nc1-c1ccc(C(=O)NCC#N)cc1 (stereo not drawn) [Example 132, N-(Cyanomethyl)-4-(2-((1-(4-hydroxycyclohexyl)-1H-pyrazol-4-yl)amino)-5-methylpyrimidin-4-yl)benzamide]							6.44	2.89	< 0.25		24500	10400	1760	5930	20.4	31500	
COC[C@@H](C#N)NC(=O)c1ccc(-c2nc(Nc3cnn(C4CCN(C)CC4)c3)ncc2C)cc1 [Example 213, (R)—N-(1-Cyano-2-methoxyethyl)-4-(5-methyl-2-((1-(1-methylpiperidin-4-yl)-1H-pyrazol-4-yl)amino)pyrimidin-4-yl)benzamide]							4.61		1.73		> 50000	> 50000	19400	> 50000	17.4	> 50000	
Cc1cnc(Nc2cnn(CCO)c2)nc1-c1ccc(C(=O)N[C@@H](C)C#N)cc1 [Example 200, (S)—N-(1-cyanoethyl)-4-(2-((1-(2-hydroxyethyl)-1H-pyrazol-4-yl)amino)-5-methylpyrimidin-4-yl)benzamide]							2.86		27.1		> 50000	> 50000	> 50000	> 50000	27.3	> 50000	
CC[C@@H](C#N)NC(=O)c1ccc(-c2nc(Nc3cnn(CC#N)c3)ncc2C)cc1 [Example 55, (S)-4-(2-((1-(cyanomethyl)-1H-pyrazol-4-yl)amino)-5-methylpyrimidin-4-yl)-N-(1-cyanopropyl)benzamide]							4.33		48.7		44800	> 50000	19000	> 50000	48.2	21500	
Cc1cnc(Nc2cnn(C)c2)nc1-c1ccc(C(=O)N[C@@H](C)C#N)cc1 [Example 18, (S)—N-(1-Cyanoethyl)-4-(5-methyl-2-((1-methyl-1H-pyrazol-4-yl)amino)pyrimidin-4-yl)benzamide]	23.3	504	1.4	33.1	28.8	11	10	53		0.85					49.6		
Cc1cnc(Nc2cnn(CCO)c2)nc1-c1ccc(C(=O)N[C@H](C#N)C2CC2)cc1 [Example 215, (S)—N-(cyano(cyclopropyl)methyl)-4-(2-((1-(2-hydroxyethyl)-1H-pyrazol-4-yl)amino)-5-methylpyrimidin-4-yl)benzamide]							5.7		41		> 50000	> 50000	> 50000	> 50000	28	> 50000	
Cc1cnc(Nc2cnn(C3CCOCC3)c2)nc1-c1ccc(C(=O)NCC#N)cc1 [Example 26, N-(Cyanomethyl)-4-(5-methyl-2-((1-(tetrahydro-2H-pyran-4-yl)-1H-pyrazol-4-yl)amino)pyrimidin-4-yl)benzamide]	17.1	1060	0.6	15.8	30	9.3	14.1	31.1	1.03	0.33							
Cc1cnc(Nc2cnn(C3CC3)c2)nc1-c1ccc(C(=O)NCC#N)cc1 [Example 25, N-(Cyanomethyl)-4-(2-((1-cyclopropyl-1H-pyrazol-4-yl)amino)-5-methylpyrimidin-4-yl)benzamide]	263	607	0.6	29.8	12	5.19	11.2	47.5	20.9	0.69							1.34
CC[C@@H](C#N)NC(=O)c1ccc(-c2nc(Nc3cn[nH]c3)ncc2Cl)cc1 [Example 185, (S)-4-(2-((1H-Pyrazol-4-yl)amino)-5-chloropyrimidin-4-yl)-N-(1-cyanopropyl)benzamide]							1.58		15.2		10700	7630	2300	6040	3.51	10900	
